Experimental data published in patent publication US8822468B2 (Novartis AG, priority 2008, dated 2014).

target: T1, cMET receptor tyrosine kinase (GST-cMET (969-1390)) (Homo sapiens, UniProt P08581); assay: EPK cMET profiling assay (LanthaScreen TR-FRET antibody based kinase phosphorylation assay); type: biochemical; conditions: purified recombinant GST-cMET (969-1390), 2 μM ATP, 50 nM Fluorescein-PolyEAY, 60 minutes at room temperature; read-out: c-Met IC50
T1 construct: made in house
Outline: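 Compounds tested at eight final concentrations from 10 down to 0.003 µM against affinity-purified GST-cMET (969-1390, 0.3 nM) with 2 µM ATP and 50 nM fluorescein-PolyEAY in Tris buffer with MgCl2 and MnCl2, 1 h at room temperature. After EDTA stop, phosphoproduct detected by LanthaScreen TR-FRET with Tb-PY20 antibody, end-point measurement.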

T1 sequence (P08581 969-1390): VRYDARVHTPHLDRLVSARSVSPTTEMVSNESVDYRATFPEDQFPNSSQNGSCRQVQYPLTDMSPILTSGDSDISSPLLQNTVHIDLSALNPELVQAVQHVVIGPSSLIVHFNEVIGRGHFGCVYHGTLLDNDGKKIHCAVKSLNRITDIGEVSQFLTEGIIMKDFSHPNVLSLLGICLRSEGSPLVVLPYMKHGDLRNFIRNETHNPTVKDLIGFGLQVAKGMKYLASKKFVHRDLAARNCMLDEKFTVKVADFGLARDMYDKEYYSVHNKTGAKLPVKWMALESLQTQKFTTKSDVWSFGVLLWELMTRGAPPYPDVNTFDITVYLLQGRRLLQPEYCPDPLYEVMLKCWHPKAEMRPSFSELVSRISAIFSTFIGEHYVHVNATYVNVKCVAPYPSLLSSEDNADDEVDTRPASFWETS

Row | SMILES | IC50 [nM]
1 | CN(C)CCNC(=O)c1cccc(-c2ccc3ncc(Cc4ccc5ncccc5c4)n3n2)c1 [Example 66, N-(2-Dimethylamino-ethyl)-3-(3-quinolin-6-ylmethyl-imidazo[1,2-b]pyridazin-6-yl)-benzamide] | 60
2 | CN(C)[C@@H]1CCN(c2ccc3ncc(Cc4ccc5nccn5c4)n3n2)C1 [Example 76, [(R)-1-(3-Imidazo[1,2-a]pyridin-6-ylmethyl-imidazo[1,2-b]pyridazin-6-yl)-pyrrolidin-3-yl]-dimethyl-amine] | 300
3 | c1cnc2ccc(Cc3cnc4ccc(-n5ccnc5)nn34)cc2c1 [Example 115, 6-(6-Imidazol-1-yl-imidazo[1,2-b]pyridazin-3-ylmethyl)-quinoline] | 95
4 | N#Cc1cccc(-c2ccc3ncc(Cc4ccc5ncccc5c4)n3n2)c1 [Example 26, 3-(3-Quinolin-6-ylmethyl-imidazo[1,2-b]pyridazin-6-yl)-benzonitrile] | 20
5 | OCCNc1ccc2ncc(Cc3ccc4ncccc4c3)n2n1 [Example 92, 2-(3-Quinolin-6-ylmethyl-imidazo[1,2-b]pyridazin-6-ylamino)-ethanol] | 32
6 | CN1CCC(n2cc(-c3ccc4ncc(Cc5ccc6ncccc6c5)n4n3)cn2)CC1 [Example 238, 6-{6-[1-(1-Methyl-piperidin-4-yl)-1H-pyrazol-4-yl]-imidazo[1,2-b]pyridazin-3-ylmethyl}-quinoline] | 230
7 | CNCCn1cc(-c2ccc3ncc(Cc4ccc5ncccc5c4)n3n2)cn1 [Example 237, Methyl-{2-[4-(3-quinolin-6-ylmethyl-imidazo[1,2-b]pyridazin-6-yl)-pyrazol-1-yl]-ethyl}-amine] | 170
8 | CC(O)(c1c(F)cc2ncccc2c1F)c1cnc2ccc(-c3cnn(CCO)c3)nn12 (racemic) [Example 267, (rac)-1-(5,7-Difluoro-quinolin-6-yl)-1-{6-[1-(2-hydroxy-ethyl)-1H-pyrazol-4-yl]-imidazo[1,2-b]pyridazin-3-yl}-ethanol] | 260
9 | COc1ncc(-c2ccc3ncc(Cc4ccc5ncccc5c4)n3n2)cn1 [Example 56, 6-[6-(2-Methoxy-pyrimidin-5-yl)-imidazo[1,2-b]pyridazin-3-ylmethyl]-quinoline] | 250
10 | CCOC(=O)c1cccc(-c2ccc3ncc(Cc4ccc5ncccc5c4)n3n2)c1 [Example 60, 3-(3-Quinolin-6-ylmethyl-imidazo[1,2-b]pyridazin-6-yl)-benzoic acid ethyl ester] | 340
11 | COCCNc1ccc2ncc(Cc3ccc4ncccc4c3)n2n1 [Example 89, (2-Methoxy-ethyl)-(3-quinolin-6-ylmethyl-imidazo[1,2-b]pyridazin-6-yl)-amine] | 26
12 | FC(F)(F)c1ccc(-c2ccc3ncc(Cc4ccc5ncccc5c4)n3n2)cc1 [Example 33, 6-[6-(4-Trifluoromethyl-phenyl)-imidazo[1,2-b]pyridazin-3-ylmethyl]-quinoline] | 370
13 | C[C@@H](c1ccc2ncccc2c1)c1cnc2ccc(-c3cnn(CCO)c3)nn12 [Example 179, 2-{4-[3-((S)-1-Quinolin-6-yl-ethyl)-imidazo[1,2-b]pyridazin-6-yl]-pyrazol-1-yl}-ethanol] | 15
14 | CC(=O)c1ccc(-c2ccc3ncc(Cc4ccc5ncccc5c4)n3n2)cc1 [Example 21, 1-[4-(3-Quinolin-6-ylmethyl-imidazo[1,2-b]pyridazin-6-yl)-phenyl]-ethanone] | 27.5
15 | CC(C)CNc1ccc2ncc(C(O)c3ccc4ncccc4c3)n2n1 (racemic) [Example 77, (rac)-(6-Isobutylamino-imidazo[1,2-b]pyridazin-3-yl)-quinolin-6-yl-methanol] | 225
16 | CN(C)[C@@H]1CCN(c2ccc3ncc(Cc4ccc5ncccc5c4)n3n2)C1 [Example 88, Dimethyl-[(R)-1-(3-quinolin-6-ylmethyl-imidazo[1,2-b]pyridazin-6-yl)-pyrrolidin-3-yl]-amine] | 12
